Source: US20100292169A1, “METHODS AND COMPOSITIONS FOR REGULATING HDAC6 ACTIVITY” (Duke University, priority 2005, published 2010)
One block for each molecule: values may come before it. Square brackets hold non-standard residues; d marks the D form. Peptide text beside a SMILES is read from it. * marks the point of attachment. Aoe = N[C@@H](CCCCCC(=O)[C@@H]1CO1)C(=O)O; Cbz = O=C(OCc1ccccc1)*

What was measured:
[1] = tested on: p60^HOP and p50^cdc37; assay: Rescue of p60HOP and p50cdc37 levels by proteasome inhibition after loss of HDAC6; type: cell-based
Excerpt: Since p60^HOP and p50^cdc37 are critical co-chaperones for Hsp90 function, these observations provide further evidence that HDAC6 is required for full Hsp90 chaperone function.

[2] = tested on: Hsp90-p23 interactions; assay: Hsp90-p23 co-immunoprecipitation in A549 cells; type: cell-based; settings: treated for 4 hours or HDAC6 siRNA knockdown
Experimental: (§1) Immunoprecipitation and immunostaining. Cells were lysed as described previously (Hubbert et al., 2002). Hsp90 antibody was pre-incubated with rabbit-anti-mouse (Jackson Labs) and Protein-A Sepharose beads (Roche) for 10 minutes. The bead/antibody mix was added to 750 μg of whole cell lysate and incubated at 4° C. for 3 hours. Samples were washed 4 times with 150 mM NETN(Hubbert et al., 2002) and subjected to SDS-PAGE and immunoblotting analysis. Immunolocalization of GR and HDAC6 was described previously (Hubbert et al., 2002).
(§2) Studies were also conducted to identify the molecular basis for the regulation of Hsp90 function via HDAC6-mediated deacetylation. Because the proper folding of GR by Hsp90 depends on the association of Hsp90 with a distinct set of co-chaperones into a chaperone complex (Neckers, 2002; Pratt and Toft, 2003), a determination was made regarding whether Hsp90 acetylation affects Hsp90/co-chaperone assembly. The p23 protein (Johnson and Toft, 1994) is a co-chaperone that stabilizes the Hsp90-GR complex and is critical for GR ligand binding activity in vitro and in vivo (Dittmar et al., 1997; Morishima et al., 2003). Control A549 cells and HDAC6 siRNA knockdown cells (KD) were left untreated or treated for 4 hours with TSA or TPXb. Lysates were immunoprecipitated with α-Hsp90 antibody followed by immunoblotting with α-p23 antibody. […]

[3] = tested on: HDAC members; settings: cited from earlier work
[4] = tested on: Hsp90; assay: Hsp90 acetylation: α-Hsp90 immunoprecipitation, α-AcK immunoblot, in A549 cells; type: cell-based
Experimental: as §1
HDAC6 regulates Hsp90 acetylation. To investigate the possibility that HDAC6 functions as an Hsp90 deacetylase, a determination was made regarding whether over-expression of HDAC6 can lead to Hsp90 deacetylation in vivo. […] A basal level of Hsp90 acetylation could be detected in control A549 cell lines. […] The reactions were then subjected to SDS-PAGE and immunoblotted with the indicated antibodies).
Hsp90 hyperacetylation is induced by dexamethasone and correlated with the dissociation of functional […]. Experiments were conducted to determine whether Hsp90 acetylation is regulated by dexamethasone. Control and HDAC6 knockdown A549 cells were cultured in hormone free media for 24 hours, and then stimulated with dexamethasone for the indicated time in hours. […]

[5] = tested on: Hsp90-GR complex; assay: Hsp90-GR co-immunoprecipitation in A549 cells; type: cell-based; settings: TSA 4 hours or HDAC6 knockdown
Experimental: as §1, §2

[6] = target: glucocorticoid receptor (GR), endogenous, of A549 and 293T cells (human) (UniProt P04150); assay: cell-based or functional assay
[7] = target: acetylated (hyperacetylated) Hsp90 from HDAC6 knockdown or TSA-treated cells
[8] = target: T1, mouse glucocorticoid receptor (mGR), full length (mouse, UniProt P06537 1-792); assay: immunoadsorption of mGR from wild-type and HDAC6 knockdown 293T cells, immunoblot for coadsorbed p23 (within the GR.hsp90 complex)
T1 construct: stripped of chaperones with 0.5 M NaCl before reconstitution; also called mouse GR
T1 sequence (looked up): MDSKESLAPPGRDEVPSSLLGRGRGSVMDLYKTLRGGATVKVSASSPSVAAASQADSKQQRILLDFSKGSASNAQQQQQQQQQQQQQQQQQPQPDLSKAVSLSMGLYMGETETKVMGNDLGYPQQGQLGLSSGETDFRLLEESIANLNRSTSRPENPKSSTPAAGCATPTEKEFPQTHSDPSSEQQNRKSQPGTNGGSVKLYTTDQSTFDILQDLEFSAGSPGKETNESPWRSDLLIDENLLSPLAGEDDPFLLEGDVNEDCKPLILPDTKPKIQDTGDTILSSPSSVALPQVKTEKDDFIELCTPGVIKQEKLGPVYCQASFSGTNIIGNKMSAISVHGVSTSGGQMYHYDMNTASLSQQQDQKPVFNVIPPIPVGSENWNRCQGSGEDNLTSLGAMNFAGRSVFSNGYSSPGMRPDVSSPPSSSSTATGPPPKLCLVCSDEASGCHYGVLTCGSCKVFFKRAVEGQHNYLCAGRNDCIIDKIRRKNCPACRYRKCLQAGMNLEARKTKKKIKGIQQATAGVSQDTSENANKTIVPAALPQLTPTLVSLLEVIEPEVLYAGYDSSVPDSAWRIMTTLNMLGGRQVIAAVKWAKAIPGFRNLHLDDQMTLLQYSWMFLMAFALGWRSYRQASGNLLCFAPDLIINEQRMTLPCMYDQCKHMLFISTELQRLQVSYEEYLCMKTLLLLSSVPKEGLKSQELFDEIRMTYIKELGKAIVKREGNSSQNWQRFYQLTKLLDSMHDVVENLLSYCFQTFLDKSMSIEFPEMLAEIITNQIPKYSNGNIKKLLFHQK
Excerpt: Because an immunoadsorbing antibody against the human GR was not available, the mouse GR was transiently expressed in HEK cells.

Molecule: CC(C)C[C@@H](C=O)NC(=O)[C@H](CC(C)C)NC(=O)[C@H](CC(C)C)NC(=O)OCc1ccccc1 [MG132] (Cbz-Leu-Leu-Leu-aldehyde)
rescue of the reduction of p60^HOP and p50^cdc37 [1]: partially rescued

Molecule: O=C1N[C@@H](Cc2ccccc2)C(=O)N2CCC[C@@H]2C(=O)N[C@@H](CCCCCC(=O)[C@@H]2CO2)C(=O)N[C@H]1Cc1ccccc1 [TPXb] (cyclo(FF[dP][Aoe]))
Hsp90-p23 interactions [2]: had little effect
HDAC inhibition profile [3]: a potent inhibitor for all HDAC members except HDAC6

Molecule: CC(/C=C/C(=O)NO)=C\[C@@H](C)C(=O)c1ccc(N(C)C)cc1 [trichostatin A]
level of acetylated Hsp90 ([4]; A549 cells, treated for 4 hours (TPXb 100 nM) or stably expressing siRNA): dramatic rise in the level of acetylated Hsp90
Hsp90 acetylation in HDAC6 knockdown cells ([4]; HDAC6 knockdown A549 cells, TSA treatment): little effect on Hsp90 acetylation
Hsp90-p23 interactions [2]: disrupted Hsp90-p23 interactions
Hsp90 and GR interaction [5]: significantly reduced

GR ligand binding activity ([^3H]dexamethasone bound in 293T cytosol) (fold reduction) [6]: 6
Molecule: acetylated (hyperacetylated) Hsp90 from HDAC6 knockdown or TSA-treated cells

B1: Flag-HDAC6 (FLAG-tagged wild-type HDAC6) (protein)
chain: MTSTGQDSTTTRQRRSRQNPQSPPQDSSVTSKRNIKKGAVPRSIPNLAEVKKKGKMKKLGQAMEEDLIVGLQGMDLNLEAEALAGTGLVLDEQLNEFHCLWDDSFPEGPERLHAIKEQLIQEGLLDRCVSFQARFAEKEELMLVHSLEYIDLMETTQYMNEGELRVLADTYDSVYLHPNSYSCACLASGSVLRLVDAVLGAEIRNGMAIIRPPGHHAQHSLMDGYCMFNHVAVAARYAQQKHRIRRVLIVDWDVHHGQGTQFTFDQDPSVLYFSIHRYEQGRFWPHLKASNWSTTGFGQGQGYTINVPWNQVGMRDADYIAAFLHVLLPVALEFQPQLVLVAAGFDALQGDPKGEMAATPAGFAQLTHLLMGLAGGKLILSLEGGYNLRALAEGVSASLHTLLGDPCPMLESPGAPCRSAQASVSCALEALEPFWEVLVRSTETVERDNMEEDNVEESEEEGPWEPPVLPILTWPVLQSRTGLVYDQNMMNHCNLWDSHHPEVPQRILRIMCRLEELGLAGRCLTLTPRPATEAELLTCHSAEYVGHLRATEKMKTRELHRESSNFDSIYICPSTFACAQLATGAACRLVEAVLSGEVLNGAAVVRPPGHHAEQDAACGFCFFNSVAVAARHAQTISGHALRILIVDWDVHHGNGTQHMFEDDPSVLYVSLHRYDHGTFFPMGDEGASSQIGRAAGTGFTVNVAWNGPRMGDADYLAAWHRLVLPIAYEFNPELVLVSAGFDAARGDPLGGCQVSPEGYAHLTHLLMGLASGRIILILEGGYNLTSISESMAACTRSLLGDPPPLLTLPRPPLSGALASITETIQVHRRYWRSLRVMKVEDREGPSSSKLVTKKAPQPAKPRLAERMTTREKKVLEAGMGKVTSASFGEESTPGQTNSETAVVALTQDQPSEAATGGATLAQTISEAAIGGAMLGQTTSEEAVGGATPDQTTSEETVGGAILDQTTSEDAVGGATLGQTTSEEAVGGATLAQTTSEAAMEGATLDQTTSEEAPGGTELIQTPLASSTDHQTPPTSPVQGTTPQISPSTLIGSLRTLELGSESQGASESQAPGEENLLGEAAGGQDMADSMLMQGSRGLTDQAIFYAVTPLPWCPHLVAVCPIPAAGLDVTQPCGDCGTIQENWVCLSCYQVYCGRYINGHMLQHHGNSGHPLVLSYIDLSAWCYYCQAYVHHQALLDVKNIAHQNKFGEDMPHPH
in vitro deacetylation of acetylated Hsp90 (37° C., 60 minutes; α-AcK immunoblot) [7]: immuno-purified wild type but not catalytically inactive mutant HDAC6 can efficiently deacetylate acetylated Hsp90 in vitro
restoration of stable GR.hsp90 heterocomplex assembly activity after incubation with immunopurified FLAG-HDAC6 [7]: The stable heterocomplex assembly activity of purified knockdown cell hsp90 is restored to the level of purified wild-type hsp90 by incubation with immunopurified FLAG-HDAC6

B2: Flag-HDAC6-cat-mut (H216/611A, catalytically inactive mutant) (protein)
chain: MTSTGQDSTTTRQRRSRQNPQSPPQDSSVTSKRNIKKGAVPRSIPNLAEVKKKGKMKKLGQAMEEDLIVGLQGMDLNLEAEALAGTGLVLDEQLNEFHCLWDDSFPEGPERLHAIKEQLIQEGLLDRCVSFQARFAEKEELMLVHSLEYIDLMETTQYMNEGELRVLADTYDSVYLHPNSYSCACLASGSVLRLVDAVLGAEIRNGMAIIRPPGHAAQHSLMDGYCMFNHVAVAARYAQQKHRIRRVLIVDWDVHHGQGTQFTFDQDPSVLYFSIHRYEQGRFWPHLKASNWSTTGFGQGQGYTINVPWNQVGMRDADYIAAFLHVLLPVALEFQPQLVLVAAGFDALQGDPKGEMAATPAGFAQLTHLLMGLAGGKLILSLEGGYNLRALAEGVSASLHTLLGDPCPMLESPGAPCRSAQASVSCALEALEPFWEVLVRSTETVERDNMEEDNVEESEEEGPWEPPVLPILTWPVLQSRTGLVYDQNMMNHCNLWDSHHPEVPQRILRIMCRLEELGLAGRCLTLTPRPATEAELLTCHSAEYVGHLRATEKMKTRELHRESSNFDSIYICPSTFACAQLATGAACRLVEAVLSGEVLNGAAVVRPPGHAAEQDAACGFCFFNSVAVAARHAQTISGHALRILIVDWDVHHGNGTQHMFEDDPSVLYVSLHRYDHGTFFPMGDEGASSQIGRAAGTGFTVNVAWNGPRMGDADYLAAWHRLVLPIAYEFNPELVLVSAGFDAARGDPLGGCQVSPEGYAHLTHLLMGLASGRIILILEGGYNLTSISESMAACTRSLLGDPPPLLTLPRPPLSGALASITETIQVHRRYWRSLRVMKVEDREGPSSSKLVTKKAPQPAKPRLAERMTTREKKVLEAGMGKVTSASFGEESTPGQTNSETAVVALTQDQPSEAATGGATLAQTISEAAIGGAMLGQTTSEEAVGGATPDQTTSEETVGGAILDQTTSEDAVGGATLGQTTSEEAVGGATLAQTTSEAAMEGATLDQTTSEEAPGGTELIQTPLASSTDHQTPPTSPVQGTTPQISPSTLIGSLRTLELGSESQGASESQAPGEENLLGEAAGGQDMADSMLMQGSRGLTDQAIFYAVTPLPWCPHLVAVCPIPAAGLDVTQPCGDCGTIQENWVCLSCYQVYCGRYINGHMLQHHGNSGHPLVLSYIDLSAWCYYCQAYVHHQALLDVKNIAHQNKFGEDMPHPH
in vitro deacetylation of acetylated Hsp90 (37° C., 60 minutes; α-AcK immunoblot) [7]: immuno-purified wild type but not catalytically inactive mutant HDAC6 can efficiently deacetylate acetylated Hsp90 in vitro

binding result [8]: binds
B3: p23 protein (Hsp90 co-chaperone), endogenous, of A549 and 293T cells (other, UniProt Q15185 1-160, looked up)
chain: MQPASAKWYDRRDYVFIEFCVEDSKDVNVNFEKSKLTFSCLGGSDNFKHLNEIDLFHCIDPNDSKHKRTDRSILCCLRKGESGQSWPRLTKERAKLNWLSVDFNNWKDWEDDSDEDMSNFDRFSEMMNNMGGDEDVDLPEVDGADDDSQDSDDEKMPDLE
